The structures appear in SMILES notation.

Experiment [1] concerns Mus musculus. Kind of experiment: Tested for antiTrypanosomal activity against Trypanosoma rhodesiense in mice at dose of 320 mg/kg expressed as mean survival time (MST) or cures. It counts as functional.
For experiment [2], the system named is Mus musculus. In words: Tested for antiTrypanosomal activity against Trypanosoma rhodesiense in mice at dose of 5 mg/kg expressed as mean survival time (MST) or cures. In kind it is functional.
In experiment [3] the test system is Mus musculus. In words: Tested for antiTrypanosomal activity against Trypanosoma rhodesiense in mice at dose of 640 mg/kg expressed as mean survival time (MST) or cures. In kind it is functional.
In experiment [4] the test system is Mus musculus. Kind of experiment: Tested for antiTrypanosomal activity against Trypanosoma rhodesiense in mice at dose of 80 mg/kg expressed as mean survival time (MST) or cures. It counts as functional.
Experiment [5] concerns Mus musculus. In words: Tested for antiTrypanosomal activity against Trypanosoma rhodesiense in mice at dose of 1.25 mg/kg expressed as mean survival time (MST) or cures. It counts as functional.
For experiment [6], the system named is Mus musculus. Kind of experiment: Tested for antiTrypanosomal activity against Trypanosoma rhodesiense in mice at dose of 2.5 mg/kg expressed as mean survival time (MST) or cures. In kind it is functional.
In experiment [7] the test system is Mus musculus. Kind of experiment: Tested for antiTrypanosomal activity against Trypanosoma rhodesiense in mice at dose of 10 mg/kg expressed as mean survival time (MST) or cures. It counts as functional.
Experiment [8] deals with Mus musculus. Kind of experiment: Tested for antiTrypanosomal activity against Trypanosoma rhodesiense in mice at dose of 160 mg/kg expressed as mean survival time (MST) or cures. It counts as functional.
The test system of experiment [9] is Mus musculus. Kind of experiment: Tested for antiTrypanosomal activity against Trypanosoma rhodesiense in mice at dose of 20 mg/kg expressed as mean survival time (MST) or cures. In kind it is functional.
Experiment [10] has as its system Mus musculus. In words: Tested for antiTrypanosomal activity against Trypanosoma rhodesiense in mice at dose of 40 mg/kg expressed as mean survival time (MST) or cures. It counts as functional.
For experiment [11], the system named is Mus musculus. In words: Tested for antiTrypanosomal activity against Trypanosoma rhodesiense in mice at dose of 3.3 mg/kg expressed as mean survival time (MST) or cures. In kind it is functional.
Experiment [12] concerns Mus musculus. In words: Tested for antitrypanosomal activity against trypanosoma rhodesiense in mice at dose of 53 mg/kg expressed as mean survival time (MST) or cures. It counts as functional.
In experiment [13] the test system is Mus musculus. In words: Tested for antiTrypanosomal activity against Trypanosoma rhodesiense in mice at dose of 6.6 mg/kg expressed as mean survival time (MST) or cures. In kind it is functional.
Experiment [14] has as its system Mus musculus. Kind of experiment: Tested for antiTrypanosomal activity against Trypanosoma rhodesiense in mice at dose of 106 mg/kg expressed as mean survival time (MST) or cures. It counts as functional.
Experiment [15] concerns Mus musculus. In words: Tested for antiTrypanosomal activity against Trypanosoma rhodesiense in mice at dose of 13.3 mg/kg expressed as mean survival time (MST) or cures. It counts as functional.
Experiment [16] has as its system Mus musculus. Kind of experiment: Tested for antiTrypanosomal activity against Trypanosoma rhodesiense in mice at dose of 212 mg/kg expressed as mean survival time (MST) or cures. In kind it is functional.
Experiment [17] concerns Mus musculus. Kind of experiment: Tested for antiTrypanosomal activity against Trypanosoma rhodesiense in mice at dose of 26.5 mg/kg expressed as mean survival time (MST) or cures. In kind it is functional.
The subject of experiment [18] is Mus musculus. In words: Tested for antitrypanosomal activity against trypanosoma rhodesiense in mice at dose of 424 mg/kg expressed as mean survival time (MST) or cures. In kind it is functional.
Experiment [19] deals with Mus musculus. Kind of experiment: Tested for antiTrypanosomal activity against Trypanosoma rhodesiense in mice at dose of 106 mg/kg expressed as mean survival time (MST) or cures T - toxic death. Details: dose 106 mg/kg. In kind it is functional, organism-based.
Experiment [20] concerns Mus musculus. In words: Tested for antiTrypanosomal activity against Trypanosoma rhodesiense in mice at dose of 640 mg/kg expressed as mean survival time (MST) or cures, T - toxic death. Details: dose 640 mg/kg. It counts as functional, organism-based.
The subject of experiment [21] is Mus musculus. In words: Tested for antiTrypanosomal activity against Trypanosoma rhodesiense in mice at dose of 53 mg/kg expressed as mean survival time (MST) or cures. In kind it is functional.
Experiment [22] deals with Mus musculus. Kind of experiment: Tested for antiTrypanosomal activity by screening against Trypanosoma rhodesiense in mice at dose of 424 mg/kg expressed as mean survival time (MST) or cures T - toxic death. Details: dose 424 mg/kg. It counts as functional, organism-based.
The test system of experiment [23] is Mus musculus. Kind of experiment: Tested for antiTrypanosomal activity against Trypanosoma rhodesiense in mice at dose of 160 mg/kg expressed as mean survival time (MST) or cures T - toxic death. In kind it is functional, organism-based. The arrangement: dose 160 mg/kg.
Experiment [24] concerns Mus musculus. In words: Tested for antiTrypanosomal activity against Trypanosoma rhodesiense in mice at dose of 320 mg/kg expressed as mean survival time (MST) or cures T - toxic death. In kind it is functional, organism-based. Details: dose 320 mg/kg.
In experiment [25] the test system is Mus musculus. In words: Tested for antiTrypanosomal activity against Trypanosoma rhodesiense in mice at dose of 26.5 mg/kg expressed as mean survival time (MST) or cures T - toxic death. In kind it is functional, organism-based. The arrangement: dose 26.5 mg/kg.
The test system of experiment [26] is Mus musculus. Kind of experiment: Tested for antiTrypanosomal activity against Trypanosoma rhodesiense in mice at dose of 424 mg/kg expressed as mean survival time (MST) or cures T - toxic death. Details: dose 424 mg/kg. In kind it is functional, organism-based.

With `N=C(N)c1ccc(/C=C/c2ccc(C(=N)N)cc2)cc1` [STILBAMIDINE], the Cures in [1] is 5; in experiment [2], 5; in [3] it was 5; in experiment [4], 5; in [5], 2; in [6], 5. Also, the Cures in [7], in [8], in experiment [9] and in experiment [10] was 5 each time.

As to `Cl.Cl.N=C(N)c1ccc(-c2cnc(-c3ccc(C(=N)N)cc3)o2)cc1`, the Cures in experiment [1] is listed as 5; in experiment [2], 5; in experiment [3] it was 5; in experiment [4] it was 5; in experiment [6], 3; in experiment [7], 5. For the same compound, the Cures in experiment [8], in experiment [9] and in [10] was 5 each time. Further, the “Delta MST” value in experiment [5] came out at 1.8 days.

As to `Cl.Cl.N=C(N)c1ccc(-c2nnc(-c3ccc(C(=N)N)cc3)s2)cc1`, the Cures is reported as 3 in experiment [11]; 5 in experiment [12]; 4 in [13]; 5 in experiment [14]; 5 in [15]; 5 in experiment [16]. Also, the Cures is given as 5 in [17] and 2 in experiment [18]. The “Delta MST” value in [5] is 2 days.

With `Cl.Cl.c1cc(-c2ccc(-c3ccc(C4=NCCN4)cc3)nn2)ccc1C1=NCCN1`, the Cures came to 5 in experiment [1], 1 in [4] and 3 in experiment [8]. The “Delta MST” value in experiment [7] was found to be 0.3 days; in experiment [9] it was 1.1 days; in experiment [10], 1.1 days.

For the compound `Cl.Cl.c1cc(-c2ccc(-c3ccc(C4=NCCCN4)cc3)nn2)ccc1C1=NCCCN1`, the Cures is reported as 1 in experiment [4], 1 in experiment [7], 4 in experiment [9] and 4 in [10]. Also, the “Delta MST” value in experiment [19] is “Toxic death”.

As to `Cl.Cl.N=C(N)c1ccc(-c2nnc(-c3ccc(C(=N)N)cc3)o2)cc1`, the “Delta MST” value is 0.8 days in experiment [8], 0.8 days in experiment [10] and “Toxic death” in [20].

With `CC1CNC(c2ccc(-c3cnc(-c4ccc(C5=NC(C)CN5)cc4)o3)cc2)=N1.Cl.Cl` (configuration not stated), the “Delta MST” value was 5.2 days in [14]; 1 days in experiment [15]; 6.8 days in [16]; 2.2 days in experiment [17]; 2.4 days in experiment [21]; “Toxic death” in [22].

For `Cl.Cl.c1cc(-c2cnc(-c3ccc(C4=NCCCN4)cc3)o2)ccc1C1=NCCCN1`, the Cures in experiment [2] was 3; in [4], 2; in experiment [6], 3; in [7], 5; in experiment [9] it was 5; in [10], 5. In addition, the “Delta MST” value was 2.7 days in [5], “Toxic death” in experiment [23], “Toxic death” in experiment [24] and “Toxic death” in experiment [20].

Consider `CC1CNC(c2ccc(-c3nnc(-c4ccc(C5=NC(C)CN5)cc4)o3)cc2)=N1` (configuration not stated), for which the “Delta MST” value in experiment [19], in experiment [25] and in [26] was “Toxic death” each time.

Consider `Cl.Cl.c1cc(-c2nnc(-c3ccc(C4=NCCCN4)cc3)s2)ccc1C1=NCCCN1`, for which the “Delta MST” value is “Toxic death” in experiment [19], “Toxic death” in experiment [25], 1.1 days in experiment [10] and “Toxic death” in [26].

`Cl.Cl.c1cc(-c2cnc(-c3ccc(C4=NCCN4)cc3)o2)ccc1C1=NCCN1`: the “Delta MST” value in experiment [14] came to 0.4 days; in [17], 0.2 days; in [18], 1.6 days.

`Cl.Cl.c1cc(-c2nnc(-c3ccc(C4=NCCCN4)cc3)o2)ccc1C1=NCCCN1`: the “Delta MST” value is 1.3 days in experiment [13], “Toxic death” in experiment [19] and “Toxic death” in [26]. The figures for the Cures in experiment [15] and in experiment [17] were 1 and 5, respectively.

For `N=C(N)c1ccc(/C=C/c2ccc(C(=N)N)cc2O)cc1` [HYDROXYSTILBAMIDINE], the Cures in experiment [1] stood at 5; in experiment [2], 5; in [3], 5; in experiment [4], 5; in [5], 2; in experiment [6] it was 5. Further, the Cures in [7], in [8], in experiment [9] and in [10] was 5 each time.

Regarding `Cl.Cl.c1cc(-c2nnc(-c3ccc(C4=NCCN4)cc3)o2)ccc1C1=NCCN1`, the “Delta MST” value is 1 days in [8], 0.8 days in experiment [10] and “Toxic death” in [20].

As to `N=C(N)c1ccc(OCCCCCOc2ccc(C(=N)N)cc2)cc1` [PENTAMIDINE], the Cures in experiment [1] is 5; in experiment [2], 5; in experiment [3] it was 5; in [4], 5; in experiment [5] it was 1; in experiment [6] it was 4. For the same compound, the Cures in experiment [7], in experiment [8], in experiment [9] and in [10] was 5 in each case.

Turning to `N=C(Nc1ccc(NC(=N)c2ccccc2)o1)c1ccccc1`, the Cures in experiment [1] amounted to 5; in [2], 5; in experiment [3] it was 5; in experiment [4], 5; in experiment [5], 4; in experiment [6], 4. Moreover, the Cures in experiment [7], in [8], in experiment [9] and in [10] was 5 in each case.

For the origin of these results see ChEMBL document CHEMBL1121442, “Synthesis and antitrypanosomal activity of some bis(4-guanylphenyl) five- and six-membered ring heterocycles” (1980).
